Laboratory results taken from PMC2765504 (Journal of natural products, 2009).

Molecular target: T1, EncN (Streptomyces maritimus, UniProt Q9KHK1)
T1 sequence (Q9KHK1 1-522): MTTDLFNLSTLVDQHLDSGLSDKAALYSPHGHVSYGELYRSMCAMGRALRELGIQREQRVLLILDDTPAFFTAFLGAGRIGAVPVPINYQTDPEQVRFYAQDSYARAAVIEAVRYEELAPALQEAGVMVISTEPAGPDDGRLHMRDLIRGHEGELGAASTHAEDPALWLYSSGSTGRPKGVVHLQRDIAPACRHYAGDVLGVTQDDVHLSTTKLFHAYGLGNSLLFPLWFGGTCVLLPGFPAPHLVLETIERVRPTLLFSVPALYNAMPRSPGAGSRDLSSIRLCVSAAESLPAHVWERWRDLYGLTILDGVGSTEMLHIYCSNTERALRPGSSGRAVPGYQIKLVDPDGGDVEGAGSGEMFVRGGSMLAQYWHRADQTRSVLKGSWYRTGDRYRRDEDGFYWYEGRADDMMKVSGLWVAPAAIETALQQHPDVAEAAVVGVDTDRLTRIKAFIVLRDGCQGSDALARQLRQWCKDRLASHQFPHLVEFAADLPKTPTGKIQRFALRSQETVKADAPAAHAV
T1 sequence (Q9KHK4 1-82 partner): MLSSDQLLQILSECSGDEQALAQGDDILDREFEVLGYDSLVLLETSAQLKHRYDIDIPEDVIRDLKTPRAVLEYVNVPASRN
Assay: FTMS of acyl loading on holo-EncC
Format: biochemical
Conditions: ATP 10 mM, EncN 2 uM, holo-EncC 20 uM

Row | SMILES | FTMS of acyl loading on holo-EncC (benzoic acid omitted) | FTMS of acyl loading on holo-EncC (benzoic acid 10 mM)
1 | O=C(O)c1ccccc1O [salicylic acid] | in its absence, EncN preferentially activates and loads salicylate | –
2 | O=C(O)c1ccccc1 [benzoic acid] | – | Upon incubation with EncN, benzoate was transferred in typical nonribosomal peptide synthetase fashion
